From ChEMBL document CHEMBL4715829, “Heterodimeric Rifampicin-Tobramycin conjugates break intrinsic resistance of Pseudomonas aeruginosa to doxycycline and chloramphenicol in vitro and in a Galleria mellonella in vivo model” (Eur J Med Chem, 2019) come the findings set out here.

A value given as a limit tells only on which side of the number the result lay.

In experiment [1] the test system is Pseudomonas aeruginosa. Nature of the experiment: Antibacterial activity against Pseudomonas aeruginosa 264-101354 assessed as fractional inhibitory concentration incubated for 18 hrs in presence of doxycycline by broth microdilution assay. The class given is functional.
Experiment [2] has as its system Pseudomonas aeruginosa. Nature of the experiment: Antibacterial activity against Pseudomonas aeruginosa 262-101856 assessed as fractional inhibitory concentration incubated for 18 hrs in presence of doxycycline by broth microdilution assay. The class given is functional. A general note: Dilution methods test growth across graded concentrations, often in twofold steps.

Experiment [3] relates to Pseudomonas aeruginosa. The experiment is described as follows: Antibacterial activity against Pseudomonas aeruginosa 100036 assessed as fractional inhibitory concentration incubated for 18 hrs in presence of doxycycline by broth microdilution assay. Format: functional.
For experiment [4], the system named is Pseudomonas aeruginosa. Nature of the experiment: Potentiation of chloramphenicol-induced antibacterial activity against Pseudomonas aeruginosa PAO1 incubated for 18 hrs in presence of chloramphenicol by broth microdilution assay. The class given is functional, organism-based. Particulars: dose 1-32 µg/ml.
Experiment [5] concerns Pseudomonas aeruginosa. Nature of the experiment: Antibacterial activity against Pseudomonas aeruginosa 260-97103 assessed as fractional inhibitory concentration index incubated for 18 hrs in presence of rifampicin by broth microdilution assay. Format: functional.
In experiment [6] the test system is Enterobacter cloacae. Nature of the experiment: Antibacterial activity against Enterobacter cloacae ATCC 117029 assessed as potentiation of chloramphenicol-induced antibacterial activity by measuring chloramphenicol MIC at 10 uM incubated for 18 hrs in presence of chloramphenicol by broth microdilution assay (reference value: 8 ug/ml). The class given is functional.

Experiment [7] relates to Pseudomonas aeruginosa. Nature of the experiment: Antibacterial activity against Pseudomonas aeruginosa 101885 assessed as fractional inhibitory concentration index incubated for 18 hrs in presence of rifampicin by broth microdilution assay. Format: functional.
Experiment [8] deals with Pseudomonas aeruginosa. The experiment is described as follows: Antibacterial activity against Pseudomonas aeruginosa 101885 assessed as fractional inhibitory concentration index in presence of doxycycline incubated for 18 hrs by broth microdilution assay. Format: functional.
Experiment [9] deals with Pseudomonas aeruginosa. Nature of the experiment: Antibacterial activity against Pseudomonas aeruginosa 114228 assessed as fractional inhibitory concentration index in presence of chloramphenicol incubated for 18 hrs by broth microdilution assay. Format: functional.
Experiment [10] concerns Pseudomonas aeruginosa. The experiment is described as follows: Potentiation of chloramphenicol-induced antibacterial activity against Pseudomonas aeruginosa PAO750 harboring MexAB-OprM, MexCD-OprJ, MexEF-OprN, Mex JK, MexXY and the OM protein OpmH deletion mutant assessed as fold change in chloramphenicol MIC at <=9.8 uM incubated for 18 hrs in presence of chloramphenicol by broth microdilution assay. Particulars: dose microM <=9.8. Format: functional.

For experiment [11], the system named is Escherichia coli. Nature of the experiment: Antibacterial activity against Escherichia coli ATCC 25922 assessed as potentiation of chloramphenicol-induced antibacterial activity by measuring chloramphenicol MIC at 10 uM incubated for 18 hrs in presence of chloramphenicol by broth microdilution assay (reference value: 2 ug/ml). The class given is functional.

Experiment [12] concerns Acinetobacter baumannii. The experiment is described as follows: Antibacterial activity against Acinetobacter baumannii ATCC 17978 assessed as reduction in bacterial growth incubated for 18 hrs by broth microdilution assay. Format: functional.
For experiment [13], the system named is Pseudomonas aeruginosa. Nature of the experiment: Antibacterial activity against Pseudomonas aeruginosa 260-97103 infected in Galleria mellonella larvae assessed as mortality of larvae at 100 mg/kg administered at 3 hrs post-infection and measured every 6 hrs for 36 hrs. The class given is functional.
In experiment [14] the test system is Enterobacter cloacae. Nature of the experiment: Antibacterial activity against Enterobacter cloacae ATCC 117029 assessed as potentiation of doxycycline-induced antibacterial activity by measuring doxycycline MIC at 10 uM incubated for 18 hrs in presence of doxycycline by broth microdilution assay (reference value: 64 ug/ml). The class given is functional.
Experiment [15] has as its system Enterobacter cloacae. The experiment is described as follows: Antibacterial activity against Enterobacter cloacae ATCC 117029 assessed as fractional inhibitory concentration index in presence of chloramphenicol incubated for 18 hrs by broth microdilution assay. The class given is functional.
The subject of experiment [16] is Escherichia coli. The experiment is described as follows: Antibacterial activity against Escherichia coli ATCC 25922 assessed as fractional inhibitory concentration index in presence of doxycycline incubated for 18 hrs by broth microdilution assay. The class given is functional.
For experiment [17], the system named is Klebsiella pneumoniae. Nature of the experiment: Antibacterial activity against Klebsiella pneumoniae ATCC 16381 assessed as potentiation of doxycycline-induced antibacterial activity by measuring doxycycline MIC at 10 uM incubated for 18 hrs in presence of doxycycline by broth microdilution assay (reference value: 128 ug/ml). Format: functional.
The test system of experiment [18] is Enterobacter cloacae. Nature of the experiment: Antibacterial activity against Enterobacter cloacae ATCC 117029 assessed as fractional inhibitory concentration index in presence of doxycycline incubated for 18 hrs by broth microdilution assay. The class given is functional.
The test system of experiment [19] is Pseudomonas aeruginosa. The experiment is described as follows: Antibacterial activity against Pseudomonas aeruginosa 101885 assessed as fractional inhibitory concentration incubated for 18 hrs in presence of minocycline by broth microdilution assay. The class given is functional.
The test system of experiment [20] is Pseudomonas aeruginosa. The experiment is described as follows: Antibacterial activity against Pseudomonas aeruginosa 260-97103 assessed as fractional inhibitory concentration index incubated for 18 hrs in presence of minocycline by broth microdilution assay. The class given is functional.
The subject of experiment [21] is Acinetobacter baumannii. Nature of the experiment: Antibacterial activity against Acinetobacter baumannii ATCC 17978 assessed as potentiation of chloramphenicol-induced antibacterial activity by measuring chloramphenicol MIC at 10 uM incubated for 18 hrs in presence of chloramphenicol by broth microdilution assay (reference value: 64 ug/ml). Format: functional.

Experiment [22] concerns Acinetobacter baumannii. Nature of the experiment: Antibacterial activity against Acinetobacter baumannii ATCC 17978 assessed as fractional inhibitory concentration index in presence of chloramphenicol incubated for 18 hrs by broth microdilution assay. The class given is functional.
Experiment [23] relates to Pseudomonas aeruginosa. The experiment is described as follows: Potentiation of doxycycline-induced antibacterial activity against Pseudomonas aeruginosa PAO750 harboring MexAB-OprM, MexCD-OprJ, MexEF-OprN, Mex JK, MexXY and the OM protein OpmH deletion mutant assessed as fold change in doxycycline MIC at <=9.8 uM incubated for 18 hrs in presence of doxycycline by broth microdilution assay. Format: functional. The settings on record: dose microM <=9.8.

For experiment [24], the system named is Pseudomonas aeruginosa. Nature of the experiment: Antibacterial activity against Pseudomonas aeruginosa 260-97103 infected in Galleria mellonella larvae assessed as survival of larvae at 100 mg/kg treated at 3 hrs post-infection in presence of doxycycline and measured after 18 hrs relative to control. Format: functional.
Experiment [25] deals with Klebsiella pneumoniae. The experiment is described as follows: Antibacterial activity against Klebsiella pneumoniae ATCC 16381 assessed as reduction in bacterial growth incubated for 18 hrs by broth microdilution assay. The class given is functional.
In experiment [26] the test system is Pseudomonas aeruginosa. Nature of the experiment: Potentiation of chloramphenicol-induced antibacterial activity against Pseudomonas aeruginosa 264-101354 incubated for 18 hrs in presence of chloramphenicol by broth microdilution assay. The settings on record: dose 1-32 µg/ml. The class given is functional, organism-based.
Experiment [27] relates to Pseudomonas aeruginosa. The experiment is described as follows: Antibacterial activity against Pseudomonas aeruginosa 260-97103 infected in Galleria mellonella larvae assessed as survival of larvae at 100 mg/kg treated at 3 hrs post-infection in presence of chloramphenicol and measured after 24 hrs relative to control. Format: functional.
In experiment [28] the test system is Pseudomonas aeruginosa. Nature of the experiment: Potentiation of chloramphenicol-induced antibacterial activity against Pseudomonas aeruginosa 262-101856 assessed as fold change in chloramphenicol MIC at 7.6 uM incubated for 18 hrs in presence of chloramphenicol by broth microdilution assay relative to control. The class given is functional.
The subject of experiment [29] is Pseudomonas aeruginosa. Nature of the experiment: Antibacterial activity against Pseudomonas aeruginosa 260-97103 assessed as potentiation of doxycycline-induced antibacterial activity by measuring doxycycline MIC at 7.6 uM incubated for 18 hrs in presence of doxycycline by broth microdilution assay (reference value: 16 ug/ml). Format: functional.
Experiment [30] relates to Pseudomonas aeruginosa. Nature of the experiment: Antibacterial activity against Pseudomonas aeruginosa 101885 assessed as potentiation of doxycycline-induced antibacterial activity by measuring doxycycline MIC at 7.6 uM incubated for 18 hrs in presence of doxycycline by broth microdilution assay (reference value: 64 ug/ml). The class given is functional.
For experiment [31], the system named is Pseudomonas aeruginosa. The experiment is described as follows: Antibacterial activity against Pseudomonas aeruginosa 100036 assessed as reduction in bacterial growth by measuring chloramphenicol MIC at 8 ug/ml incubated for 18 hrs in presence of chloramphenicol by broth microdilution assay (reference value: 1024 ug/ml). The class given is functional. Particulars: dose 8 µg/ml.

The MIC is the least concentration at which growth counts as inhibited. As usually defined, the mortality is the percentage killed.

Take `CO[C@H]1/C=C/O[C@@]2(C)Oc3c(C)c(O)c4c(O)c(c(/C=N/N5CCN(C)CC5)c(O)c4c3C2=O)NC(=O)/C(C)=C\C=C\[C@H](C)[C@H](O)[C@@H](C)[C@@H](O)[C@@H](C)[C@H](OC(C)=O)[C@@H]1C` [RIFAMPIN]: the FIC is 0.25 in [1], 0.5 in experiment [2] and 0.25 in [3].

For the compound `CO[C@H]1/C=C/O[C@@]2(C)Oc3c(C)c(O)c4c(O)c(c(/C=N/N5CCN(Cc6cn(CCCCCCO[C@@H]7[C@@H](O[C@H]8O[C@H](CO)[C@@H](O)[C@H](N)[C@H]8O)[C@H](N)C[C@H](N)[C@H]7O[C@H]7O[C@H](CN)[C@@H](O)C[C@H]7N)nn6)CC5)c(O)c4c3C2=O)NC(=O)/C(C)=C\C=C\[C@H](C)[C@H](O)[C@@H](C)[C@@H](O)[C@@H](C)[C@H](OC(C)=O)[C@@H]1C.Cl.Cl.Cl.Cl.Cl`, the Activity entry in [4] and in experiment [26] was “Dose-dependent effect” in each case. Moreover, the “fractional inhibitory concentration index (FICI)” value in experiment [5] was less than 0.16; in [7] it was 0.08; in experiment [8], 0.078; in experiment [9], less than 0.281; in experiment [15], 0.375; in experiment [16], 0.5. Also, the figures for the “fractional inhibitory concentration index (FICI)” value in experiment [18], in [20] and in experiment [22] were 0.5, less than 0.13 and 0.75, respectively. Further, the MIC in experiment [6] came out at 1 µg/mL; in experiment [11] it was 1 µg/mL; in [12] it was 64 µg/mL; in [14], 16 µg/mL; in [17], 64 µg/mL; in experiment [21] it was 32 µg/mL. Moreover, in [25], the MIC was more than 128 µg/mL. The “fold change (FC)” value in experiment [10] and in experiment [23] was 4 throughout. Moreover, the mortality at 100 mg/kg in [13] was determined as 100%. Besides, the FIC in [19] was 0.063. For the same compound, the results for the survival at 100 mg/kg in [24] and in experiment [27] were 87% and 45%, respectively.

Take `CO[C@H]1/C=C/O[C@@]2(C)Oc3c(C)c(O)c4c(O)c(c(/C=N/N5CCN(Cc6cn(CCCCCCCCCCCCO[C@@H]7[C@@H](O[C@H]8O[C@H](CO)[C@@H](O)[C@H](N)[C@H]8O)[C@H](N)C[C@H](N)[C@H]7O[C@H]7O[C@H](CN)[C@@H](O)C[C@H]7N)nn6)CC5)c(O)c4c3C2=O)NC(=O)/C(C)=C\C=C\[C@H](C)[C@H](O)[C@@H](C)[C@@H](O)[C@@H](C)[C@H](OC(C)=O)[C@@H]1C.O=C(O)C(F)(F)F.O=C(O)C(F)(F)F.O=C(O)C(F)(F)F.O=C(O)C(F)(F)F.O=C(O)C(F)(F)F`: the Activity result in experiment [4] and in experiment [26] was “Dose-dependent effect” each time. Also, the “fold change (FC)” value in [28] is listed as 4. The MIC is 0.125 µg/mL in experiment [29]; 1 µg/mL in experiment [6]; 1 µg/mL in [11]; 64 µg/mL in experiment [12]; 32 µg/mL in experiment [14]; 64 µg/mL in [17]. In addition, the values for the MIC in experiment [21], in experiment [30] and in [25] were 64 µg/mL, 2 µg/mL and more than 128 µg/mL, respectively. The “fractional inhibitory concentration index (FICI)” value in experiment [8] is given as 0.094; in [9], less than 0.156; in experiment [15], 0.375; in [16] it was 0.625; in experiment [18], 0.375; in experiment [22], 0.75.

Regarding `NC[C@H]1O[C@H](O[C@H]2[C@H](O)[C@@H](O[C@H]3O[C@H](CO)[C@@H](O)[C@H](N)[C@H]3O)[C@H](N)C[C@@H]2N)[C@H](N)C[C@@H]1O` [TOBRAMYCIN], the values for the FIC in experiment [1], in [2] and in [3] were 0.5, “<=0.5” and 0.5, respectively. Besides, the MIC in experiment [31] worked out at 1020 µg/mL.
